Assay results: patent publication EP4768487A1, “FUSED LACTAM RING COMPOUND AND USE THEREOF” (Chengdu Zenitar Biomedical Technology Co., Ltd., priority 2023, dated 2025)

target: T1, PARP1 (Homo sapiens, UniProt P09874); assay: PARP1 enzyme assay (histone-coated plate, chemiluminescence); format: biochemical; conditions: PARP1 0.02 nM, DNA 0.8 nM, NAD+ 3.5 µM; read-out: PARP-1 IC50
T1 construct: purchased BPS 80501
Method: 1.1.1. Buffer preparation: PBST: 1× PBS, 0.05% Tween-20; blocking buffer: 1× PBS, 0.05% Tween-20, 5% BSA; reaction buffer: 50 mM Tris-HCl (pH 7.5), 0.005% Tween-20, 0.01% BSA.
1.1.2. Coating: A 50 ng/mL Histone coating solution was prepared with 1× PBS and then transferred to a 384-well reaction plate at 25 µL/well. The plate was coated at 4 °C overnight.
1.1.3. Washing: After the coating was completed, the coating solution was discarded, and the plate was washed with the PBST solution. The method was as follows: PBST was transferred to the 384-well reaction plate at 50 µL/well, and the plate was left to stand for 5 min. The washing solution was then discarded, and the plate was refilled. The washing step was repeated 3 times. Finally, the reaction plate was patted dry and left for the next step of blocking.
1.1.4. Blocking: The blocking buffer was transferred to the 384-well reaction plate at 50 µL/well, and the plate was left to stand for 1 h.
Washing: After the blocking was completed, the blocking buffer was discarded, and the plate was washed 3 times with the PBST solution according to the method in step 2. Finally, the reaction plate was patted dry.
1.1.5. A 1000-fold solution of a compound was prepared and then transferred at 1 µL/well to a 96-well plate containing 199 µL of the reaction buffer. The mixture was well mixed, and then the well mixed compound solution was transferred to the 384-well reaction plate at 5 µL/well. 1.1.6. A 25/10-fold PARP1-DNA solution was prepared with the reaction buffer and then transferred to the 384-well reaction plate at 10 µL/well. For the negative control wells, 10 µL
of the DNA solution was transferred. The final concentrations of PARP1 and DNA were 0.02 nM and 0.8 nM, respectively.
1.1.9. Washing: After the reaction was completed, the reaction solution was discarded, and the plate was washed 3 times with the PBST solution according to the method in step 2. Finally, the reaction plate was patted dry.
1.1.10. A primary antibody (anti-Poly/Mono-ADP Ribose Rabbit mAb) was diluted 2000-fold with the blocking buffer and then added at 20 µL/well.
1.1.11. Washing: The primary antibody was discarded, and the plate was washed 3 times with the PBST solution according to the method in step 2. Finally, the reaction plate was patted dry.
1.1.12. A secondary antibody (anti-rabbit IgG, HRP-linked Antibody) was diluted 2000-fold with the blocking buffer and then added at 20 µL/well.
1.1.13. Washing: The secondary antibody was discarded, and the plate was washed 3 times with the PBST solution according to the method in step 2. Finally, the reaction plate was patted dry.
1.1.14. Color development: Femto-ECL Substrate A and Femto-ECL Substrate B were mixed at a ratio of 1:1, and the mixture was transferred to the 384-well reaction plate at 25 µL/well. 1.1.15. Reading: The chemiluminescence values (RLU) were measured using Envision.

T1 sequence (P09874 whole entry): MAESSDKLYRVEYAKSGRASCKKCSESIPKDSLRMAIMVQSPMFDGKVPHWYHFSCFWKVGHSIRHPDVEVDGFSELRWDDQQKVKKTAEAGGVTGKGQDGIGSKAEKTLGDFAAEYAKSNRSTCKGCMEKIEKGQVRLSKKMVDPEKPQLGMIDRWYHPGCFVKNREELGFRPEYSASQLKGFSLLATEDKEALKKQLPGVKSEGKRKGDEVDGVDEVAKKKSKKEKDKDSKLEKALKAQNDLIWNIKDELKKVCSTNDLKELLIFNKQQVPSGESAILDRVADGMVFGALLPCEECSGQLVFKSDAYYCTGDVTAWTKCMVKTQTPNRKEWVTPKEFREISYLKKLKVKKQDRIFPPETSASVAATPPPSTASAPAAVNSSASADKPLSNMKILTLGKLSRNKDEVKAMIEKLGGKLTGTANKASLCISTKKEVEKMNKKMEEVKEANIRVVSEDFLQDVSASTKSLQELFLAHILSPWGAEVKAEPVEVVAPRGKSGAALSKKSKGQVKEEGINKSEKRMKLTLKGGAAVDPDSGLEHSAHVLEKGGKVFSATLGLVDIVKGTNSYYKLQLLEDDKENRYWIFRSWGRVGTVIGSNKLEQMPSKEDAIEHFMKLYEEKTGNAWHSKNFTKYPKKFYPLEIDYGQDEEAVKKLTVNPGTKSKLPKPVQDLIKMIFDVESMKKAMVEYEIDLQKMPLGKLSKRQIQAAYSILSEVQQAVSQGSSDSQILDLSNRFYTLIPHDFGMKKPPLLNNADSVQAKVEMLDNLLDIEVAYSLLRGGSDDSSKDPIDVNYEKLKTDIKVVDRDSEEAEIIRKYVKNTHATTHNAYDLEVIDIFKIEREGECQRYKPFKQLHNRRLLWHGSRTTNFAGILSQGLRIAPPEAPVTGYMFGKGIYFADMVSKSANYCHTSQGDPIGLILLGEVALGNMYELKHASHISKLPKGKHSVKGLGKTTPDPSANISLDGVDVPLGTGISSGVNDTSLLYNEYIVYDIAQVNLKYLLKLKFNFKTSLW

`CCc1cc2c([nH]c1=O)CC(CN1CCN(c3ccc(C(=O)NC)nc3C)CC1)CC2` (centres unmarked) [Compound 17, 5-(4-((3-Ethyl-2-oxo-1,2,5,6 ,7,8-hexahydroquinoline-7-yl)methyl)piperazin-1-yl)-N,6-dimethylpicolinamide] and `CCc1cc2c([nH]c1=O)CC(CN1CCN(c3ccc(C(=O)NC)nc3F)CC1)CC2` (centres unmarked) [Compound 16, 5-(4-((3-Ethyl-2-oxo-1,2,5,6 ,7,8-hexahydroquinoline-7-yl)methyl)piperazin-1-yl)-6-fl uoro-N-methylpicolinamide] cannot be ordered by IC50: at most 50 nM for the first, at most 50 nM for the second.

`CCc1cc2c([nH]c1=O)CC(CN1CC=C(c3ccc(C(=O)NC4CC4)nc3)CC1)CC2` (centres unmarked) [Compound 28, N-Cyclopropyl-1'-((3-ethyl-2-oxo-1,2,5,6,7,8-hexahydroquinoline-7-yl)methyl)-1',2', 3',6'-tetrahydro-[3,4'-bipyridine]-6-carboxamide] and `CCc1cc2c([nH]c1=O)CC(CN1CC=C(c3ccc(C(=O)NC)nc3)CC1)CC2` (centres unmarked) [Compound 23, 1'-((3-Ethyl-2-oxo-1,2,5,6,7,8-hexahydroquinoline-7-yl)methyl)-N-methyl-1',2',3',6'-tetrahydro-[3,4'-bipyridine]-6-carboxamide] cannot be ordered by IC50: at most 50 nM for the first, at most 50 nM for the second.

`CCc1cc2c([nH]c1=O)CC(CN1CCN(c3ccc(C(=O)NC)nc3)CC1)CC2` (centres unmarked) [Compound 15, 5-(4-((3-Ethyl-2-oxo-1,2,5,6 ,7,8-hexahydroquinoline-7-yl)methyl)piperazin-1-yl)-N-methylpicolinamide] and `[2H]C([2H])([2H])NC(=O)c1ccc(N2CCN(CC3CCc4cc(CC)c(=O)[nH]c4C3)CC2)cn1` (centres unmarked) [Compound 18, 5-(4-((3-Ethyl-2-oxo-1,2,5,6 ,7,8-hexahydroquinoline-7-yl)methyl)piperazin-1-yl)-N-(methyl-d3)picolinamide] cannot be ordered by IC50: at most 50 nM for the first, at most 50 nM for the second.

`CCc1cc2c([nH]c1=O)CC(CN1CCN(c3ccc(C(=O)NC)nc3F)C[C@H]1C)OC2` (stereo partly drawn) [Example 75, 5-((3R)-4-((3-Ethyl-2-oxo-1,5,7,8-tetrahydro-2H-pyrano[4,3-b]pyridin-7-yl)methyl)-3-methylpiperazin-1-yl)-6-fluoro-N-methylpicolinamide] and `CCc1cc2c([nH]c1=O)CC(CN1CCN(c3ccc(C(=O)NC)nc3F)C[C@@H]1C)OC2` (stereo partly drawn) [Example 72, 5-((3S)-4-((3-Ethyl-2-oxo-1,5,7,8-tetrahydro-2H-pyrano[4,3-b]pyridin-7-yl)methyl)-3-methylpiperazin-1-yl)-6-fluoro-N-methylpicolinamide] fall in the same range of IC50: 50 to 500 nM for the first, 50 to 500 nM for the second.

`CNC(=O)c1ccc(N2CCN(C[C@@H]3Cc4[nH]c(=O)c(C)cc4CO3)CC2)c(Cl)n1` [Example 94, (S)-6-Chloro-N-methyl-5-(4-((3-methyl-2-oxo-1,5,7,8-tetrahydro-2H-pyrano[4,3-b]pyridin-7-yl)methyl)piperazin-1-yl)picolinamide] and `[2H]C([2H])([2H])NC(=O)c1ccc(N2CCN(CC3CCc4cc(CC)c(=O)[nH]c4C3)CC2)c(F)n1` (centres unmarked) [Compound 19, 5-(4-((3-Ethyl-2-oxo-1,2,5,6 ,7,8-hexahydroquinoline-7-yl)methyl)piperazin-1-yl)-6-fl uoro-N-(methyl-d3)picolinamide] cannot be ordered by IC50: at most 50 nM for the first, at most 50 nM for the second.

`CCc1nc2c([nH]c1=O)C[C@@H](CN1CCN3c4ccc(C(=O)NC)nc4COC[C@H]3C1)CC2` [Example 105] and `CCc1cc2c([nH]c1=O)CC(CN1CCN(c3ccc(C(=O)NC4CC4)nc3F)CC1)CC2` (centres unmarked) [Compound 21, N-Cyclopropyl-5-(4-((3-ethyl-2-oxo-1,2,5,6,7,8-hexahydroquinoline-7-yl)methyl)piperazin-1-yl)-6-fluoropicoli namide] cannot be ordered by IC50: at most 50 nM for the first, at most 50 nM for the second.

`CCc1cc2c([nH]c1=O)CC(CN1CC=C(c3ccc(C(=O)NC)nc3F)CC1)CC2` (centres unmarked) [Compound 24, 1'-((3-Ethyl-2-oxo-1,2,5,6,7,8-hexahydroquinoline-7-yl)methyl)-2-fluoro-N-methyl-1',2',3',6'-tetrahydro-[3,4'-bipyridine]-6-carboxamide] and `[2H]C([2H])([2H])NC(=O)c1ccc(C2=CCN(CC3CCc4cc(CC)c(=O)[nH]c4C3)CC2)c(F)n1` (centres unmarked) [Compound 27, 1'-((3-Ethyl-2-oxo-1,2,5,6,7,8-hexahydroquinoline-7-yl)methyl)-2-fluoro-N-(methyl-d3)-1',2',3',6'-tetrahydro-[3,4' -bipyridine]-6-carboxamide] cannot be ordered by IC50: at most 50 nM for the first, at most 50 nM for the second.

`CCc1cc2c([nH]c1=O)CC(CN1CC=C(c3ccc(C(=O)NC)nc3C)CC1)CC2` (centres unmarked) [Compound 25, 1'-((3-Ethyl-2-oxo-1,2,5,6,7,8-hexahydroquinoline-7-yl)methyl)-N,2-dimethyl-1',2',3 ',6'-tetrahydro-[3,4'-bipyridine]-6-carboxamide] and `CCc1cc2c([nH]c1=O)CC(CN1CC=C(c3ccc(C(=O)NC4CC4)nc3F)CC1)CC2` (centres unmarked) [Compound 29, N-Cyclopropyl-1'-((3-ethyl-2-oxo-1,2,5,6,7,8-hexahydroquinoline-7-yl)methyl)-2-flu oro-1',2',3',6'-tetrahydro-[3,4 '-bipyridine]-6-carboxamide] cannot be ordered by IC50: at most 50 nM for the first, at most 50 nM for the second.

`[2H]C([2H])([2H])NC(=O)c1ccc(C2=CCN(CC3CCc4cc(CC)c(=O)[nH]c4C3)CC2)cn1` (centres unmarked) [Compound 26, 1'-((3-Ethyl-2-oxo-1,2,5,6,7,8-hexahydroquinoline-7-yl)methyl)-N-(methyl-d3)-1',2', 3',6'-tetrahydro-[3,4'-bipyridine]-6-carboxamide] and `CCc1cc2c([nH]c1=O)CC(CN1CC=C(c3ccc(C(=O)NC4CC4)nc3)CC1)OC2` (centres unmarked) [Compound 8, N-Cyclopropyl-1'-((3-ethyl-2-oxo-1,5,7,8-tetrahydro-2H -pyrano[4,3-b]pyridin-7-yl)methyl)-1',2',3',6'-tetrahydro-[3,4'-bipyridine]-6-carboxamide] cannot be ordered by IC50: at most 50 nM for the first, at most 50 nM for the second.

`CCc1cc2c([nH]c1=O)CC(CN1CC=C(c3ccc(C(=O)NCC(F)F)nc3F)CC1)CC2` (centres unmarked) [Compound 30, N-(2,2-Difluoroethyl)-1'-((3-ethyl-2-oxo-1,2,5,6,7,8-hexahydroquinoline-7-yl)methyl)-2-fluoro-1',2',3',6'-tetrahy dro-[3,4'-bipyridine]-6-carb oxamide] and `CCc1cc2c([nH]c1=O)CC(CN1CCN(c3ccc(C(=O)NCC(F)F)nc3F)CC1)CC2` (centres unmarked) [Compound 22, N-(2,2-Difluoroethyl)-5-(4-( (3-ethyl-2-oxo-1,2,5,6,7,8-hexahydroquinoline-7-yl)methyl)piperazin-1-yl)-6-fluoro picolinamide] cannot be ordered by IC50: at most 50 nM for the first, at most 50 nM for the second.

`CCc1cc2c([nH]c1=O)CC(CN1CCN(c3ccc(C(=O)NC4CC4)nc3)CC1)CC2` (centres unmarked) [Compound 20, N-Cyclopropyl-5-(4-((3-ethyl-2-oxo-1,2,5,6,7,8-hexahydroquinoline-7-yl)methyl)piperazin-1-yl)picolinamide] and `CCc1cc2c([nH]c1=O)CC(CN1CC=C(c3ccc(C(=O)NC4CC4)nc3F)CC1)OC2` (centres unmarked) [Compound 7, N-Cyclopropyl-1'-((3-ethyl-2-oxo-1,5,7,8-tetrahydro-2H -pyrano[4,3-b]pyridin-7-yl)methyl)-2-fluoro-1',2',3',6'-tetrahydro-[3,4'-bipyridine]-6-carboxamide] cannot be ordered by IC50: at most 50 nM for the first, at most 50 nM for the second.

system: BRCA wild-type DLD-1 cells; assay: Anti-proliferative activity against cells (CCK8): DLD-1; format: cell-based; conditions: Homo sapiens, 72 h + 96 h culture
Method: BRCA wild-type DLD-1 cells were cultured in an RPMI-1640 medium containing 10% fetal bovine serum, 100 U/mL penicillin, and 100 µg/mL streptomycin, and incubated in an incubator with 5% saturated CO2 at 37 °C. When the cells grew to 80% confluence, they were collected, centrifuged at 300 g for 10 min, and then plated onto a 96-well plate at 1000 cells/well. After 24 h, different final concentrations (0 µM, 1 µM, and 10 µM) of PARPi were added, and the cells were cultured for another 72 h. The cells were subjected to medium exchange treatment (re-supplemented with PARPi at the same final concentrations) and then cultured for another 96 h. The 96-well plate was taken out.

Work on `[2H]C([2H])([2H])NC(=O)c1ccc(N2CCN(C([2H])([2H])[C@H]3CCc4nc(C)c(=O)[nH]c4C3)CC2)c(F)n1` [Example 84, (S)-6-Fluoro-N-(methyl-d3)-5-(4-((2-methyl-3-oxo-3,4,5,6,7,8-hexahydroquinoxalin-6-yl)methyl-d2)piperazin-1-yl)picolinamide] yielded an IC50 of over 1000 nM.
